Source: patent US6372774B1, “Derivatives of N-phenylpyrazoles” (Rhone-Poulenc Agriculture Ltd., priority 1985, dated 2002)
Read-outs that look alike come from different tables or passages of the source.

Experiments:
Assay type in all cases: in vivo
[1] = system: Phaedon cochleariae (Mustard Beetle); test: Test 3 a): leaf disc spray test, Phaedon cochleariae larvae; conditions: for pest or weed control at 10 ppm / mortality at 5 ppm: Phaedon cochleariae, foliar; for pest or weed control at 10 ppm: read-out: Phaedon % m 10 ppm; for mortality at 5 ppm: read-out: mortality of larvae of Phaedon cochleariae
Description: (§1) One or more dilutions of the compounds to be tested were made in 50% aqueous acetone.
(§2) a) Test species: Plutella xylostella (Diamond-back Moth) and Phaedon cochleariae (Mustard Beetle)
(§3) Turnip leaf discs were set in agar in petri-dishes and infected with 10 larvae (2nd instar Plutella or 3rd instar Phaedon). Four replicate dishes were assigned to each treatment and were sprayed under a Potter Tower with the appropriate test dilution. Four or five days after treatment the dishes were removed from the constant temperature (25° C.) room in which they had been held and the mean percentage mortalities of larvae were determined.

[2] = system: Megoura viciae (Vetch Aphid); test: Test 3 b): spray of infested tic bean plants, Megoura viciae; conditions: for score from 4 replicates, Megoura viciae: Test 3 method (b), application of 50 ppm, score 0-3 per replicate, maximum 12; for mortality at 50 ppm: Megoura viciae, read-out: mortality of Megoura viciae; for Megoura score/12 50 ppm: Tables 1 and 3, sum of scores 0-3 of 4 replicates
Protocol: as §1
b) Megoura viciae (Vetch Aphid)
Potted tic bean plants previously infected with mixed stages of Megoura were sprayed to run-off using a laboratory turntable sprayer. Treated plants were held in a greenhouse for 2 days and were assessed for aphid mortality using a scoring system, judging the response in comparison with plants treated with 50% aqueous acetone alone, as controls.

[3] = system: Plutella xylostella (Diamond-back Moth); test: whole plant or invertebrate; conditions: foliar; for mortality at 500 ppm: read-out: mortality of larvae of Plutella xylostella
Description: as §1, §2, §3

[4] = Tables 1-3, % mortality at 10 ppm

5-Amino-3-chlorodifluoromethyl-1-(2,6-dichloro-4-trifluoromethylphenyl)-4-cyanopyrazole [Compound 128]
Phaedon % m 10 ppm [1, 4]: 100%
score from 4 replicates, Megoura viciae [2]: 12

5-Amino-3-chlorofluoromethyl-4-cyano-1-(2,6-dichloro-4-trifluoromethylphenyl)pyrazole [Compound 166]
score from 4 replicates, Megoura viciae [2]: 12

Cc1nn(-c2c(Cl)cc(C(F)(F)F)cc2Cl)c(N)c1C#N [Compound 112, 5-Amino-4-cyano-1-(2,6-dichloro-4-trifluoromethylphenyl)-3-methylpyrazole]
pest or weed control at 10 ppm [1]: 98%
mortality at 50 ppm [2]: 100%
score from 4 replicates, Megoura viciae [2]: 12

N#Cc1c(Cl)nn(-c2c(Cl)cc(C(F)(F)F)cc2Cl)c1N [Compound 114, 5-Amino-3-chloro-4-cyano-1-(2,6-dichloro-4-trifluoromethylphenyl)pyrazole]
pest or weed control at 10 ppm [1]: 100%
mortality at 500 ppm [3]: 100%
Megoura score/12 50 ppm [2]: 9

N#Cc1c(Br)nn(-c2c(Cl)cc(C(F)(F)F)cc2Cl)c1N [Compound 115, 5-Amino-3-bromo-4-cyano-1-(2,6-dichloro-4-trifluoromethylphenyl)pyrazole]
pest or weed control at 10 ppm [1]: 100%
mortality at 500 ppm [3]: 100%
Megoura score/12 50 ppm [2]: 10

CCSNc1c(C#N)c(C)nn1-c1c(Cl)cc(C(F)(F)F)cc1Cl [Compound 117, 4-Cyano-1-(2,6-dichloro-4-trifluoromethylphenyl)-3-methyl-5-ethanesulphenylaminopyrazole]
pest or weed control at 10 ppm [1]: 68%
Megoura score/12 at 10 ppm ([2]; Table 3, value marked +: score at 10 ppm): 10+

Cc1c(C#N)c(C(F)(F)F)nn1-c1c(Cl)cc(C(F)(F)F)cc1Cl [Compound 152, 4-Cyano-1-(2,6-dichloro-4-trifluoromethylphenyl)-5-methyl-3-trifluoromethylpyrazole]
pest or weed control at 10 ppm [1]: 100%
mortality at 500 ppm [3]: 100%

CN(C)S(=O)(=O)c1c(C(F)(F)F)nn(-c2c(Cl)cc(C(F)(F)F)cc2Cl)c1N [Compound 153, 5-Amino-1-(2,6-dichloro-4-trifluoromethylphenyl)-4-(N,N-dimethylsulphamoyl)-3-trifluoromethylpyrazole]
pest or weed control at 10 ppm [1]: 100%
Megoura score/12 50 ppm [2]: 11

N#Cc1c(C(F)(F)C(F)(F)C(F)(F)F)nn(-c2c(Cl)cc(C(F)(F)F)cc2Cl)c1N [Compound 155, 5-Amino-4-cyano-1-(2,6-dichloro-4-trifluoromethylphenyl)-3-heptafluoropropylpyrazole]
pest or weed control at 10 ppm [1, 4]: 100%
pest or weed control at 500 ppm ([3]; Tables 1-2, % mortality at 500 ppm, read-out: Plutella % m 500 ppm): 96%

N#Cc1nn(-c2c(Cl)cc(SC(F)(F)F)cc2Cl)c(N)c1C#N [Compound 156, 5-Amino-3,4-dicyano-1-(2,6-dichloro-4-trifluoromethylthiophenyl)pyrazole]
mortality at 50 ppm [2]: 100%
score from 4 replicates, Megoura viciae [2]: 12

Cc1nn(-c2c(Cl)cc(C(F)(F)F)cc2Cl)c(N)c1S(C)(=O)=O [Compound 161, 5-Amino-1-(2,6-dichloro-4-trifluoromethylphenyl)-4-methanesulphonyl-3-methylpyrazole]
mortality at 5 ppm [1]: 100%
mortality at 50 ppm [2]: 100%
score from 4 replicates, Megoura viciae [2]: 12

N#Cc1c(C(F)(F)F)nn(-c2c(Cl)cc(SC(F)(F)F)cc2Cl)c1N [Compound 165, 5-Amino-4-cyano-1-(2,6-dichloro-4-trifluoromethylthiophenyl)-3-trifluoromethylpyrazole]
mortality at 5 ppm [1]: 100%
mortality at 50 ppm [2]: 100%
score from 4 replicates, Megoura viciae [2]: 12

CC(C)(C)C(=O)Nc1c([N+](=O)[O-])c(C(F)(F)F)nn1-c1c(Cl)cc(C(F)(F)F)cc1Cl [Compound 178, 1-(2,6-Dichloro-4-trifluoromethylphenyl)-4-nitro-3-trifluoromethyl-5-trimethylacetylaminopyrazole]
mortality at 5 ppm [1]: 100%
mortality at 500 ppm [3]: 100%

CCOC(=O)Nc1c([N+](=O)[O-])c(C(F)(F)F)nn1-c1c(Cl)cc(C(F)(F)F)cc1Cl [Compound 179, 1-(2,6-Dichloro-4-trifluoromethylphenyl)-5-ethoxycarbonylamino-4-nitro-3-trifluoromethylpyrazole]
mortality at 5 ppm [1]: 100%
mortality at 500 ppm [3]: 100%

CCOC(=O)Nc1c(S(C)(=O)=O)c(C(F)(F)F)nn1-c1c(Cl)cc(C(F)(F)F)cc1Cl [Compound 187, 1-(2,6-Dichloro-4-trifluoromethylphenyl)-5-ethoxycarbonylamino-4-methanesulphonyl-3-trifluoromethylpyrazole]
mortality at 5 ppm [1]: 100%
mortality at 500 ppm [3]: 100%

CCOC(=O)Nc1c(C#N)c(C#N)nn1-c1c(Cl)cc(C(F)(F)F)cc1Cl [Compound 188, 1-(2,6-Dichloro-4-trifluoromethylphenyl)-3,4-dicyano-5-ethoxycarbonylaminopyrazole]
mortality at 5 ppm [1]: 100%
mortality at 500 ppm [3]: 100%

Cc1nn(-c2c(Cl)cc(C(F)(F)F)cc2Cl)c(N)c1I [Compound 190, 5-Amino-1-(2,6-dichloro-4-trifluoromethylphenyl)-4-iodo-3-methylpyrazole]
mortality at 50 ppm [2]: 100%
score from 4 replicates, Megoura viciae [2]: 12

Cc1nn(-c2c(Cl)cc(C(F)(F)F)cc2Cl)c(N)c1[N+](=O)[O-] [Compound 191, 5-Amino-1-(2,6-dichloro-4-trifluoromethylphenyl)-3-methyl-4-nitropyrazole]
mortality at 50 ppm [2]: 100%
score from 4 replicates, Megoura viciae [2]: 12

O=[N+]([O-])c1cn(-c2c(Cl)cc(C(F)(F)F)cc2Cl)nc1C(F)(F)F [Compound 193, 1-(2,6-Dichloro-4-trifluoromethylphenyl)-4-nitro-3-trifluoromethylpyrazole]
mortality at 5 ppm [1]: 100%
mortality at 500 ppm [3]: 100%

N#Cc1cn(-c2c(Cl)cc(C(F)(F)F)cc2Cl)nc1[N+](=O)[O-] [Compound 200, 1-(2,6-Dichloro-4-trifluoromethylphenyl)-4-cyano-3-nitropyrazole]
mortality at 50 ppm [2]: 100%
score from 4 replicates, Megoura viciae [2]: 12

N#Cc1nn(-c2c(Cl)cc(C(F)(F)F)cc2Cl)c([N+](=O)[O-])c1C#N [Compound 201, 1-(2,6-Dichloro-4-trifluoromethylphenyl)-3,4-dicyano-5-nitropyrazole]
mortality at 50 ppm [2]: 100%
score from 4 replicates, Megoura viciae [2]: 12

CC(C)(C)[Si](C)(C)c1c(C#N)c(C(F)(F)F)nn1-c1c(Cl)cc(C(F)(F)F)cc1Cl [Compound 206, 5-tert.-Butyldimethylsilyl-4-cyano-1-(2,6-dichloro-4-trifluoromethylphenyl)-3-trifluoromethylpyrazole]
mortality at 5 ppm [1]: 100%
mortality at 50 ppm [2]: 100%
score from 4 replicates, Megoura viciae [2]: 12

CSc1c(C#N)c(C(F)(F)F)nn1-c1c(Cl)cc(C(F)(F)F)cc1Cl [Compound 207, 4-Cyano-1-(2,6-dichloro-4-trifluoromethylphenyl)-5-methylthio-3-trifluoromethylpyrazole]
mortality at 5 ppm [1]: 100%
mortality at 500 ppm [3]: 100%

COC(=O)Nc1c(C#N)c(C(F)(F)F)nn1-c1c(Cl)cc(C(F)(F)F)cc1Cl [Compound 212, 4-Cyano-1-(2,6-dichloro-4-trifluoromethylphenyl)-5-methoxycarbonylamino-3-trifluoromethylpyrazole]
mortality at 5 ppm [1]: 100%
mortality at 500 ppm [3]: 100%

C[S+]([O-])c1c(C(F)(F)F)nn(-c2c(Cl)cc(C(F)(F)F)cc2Cl)c1N (centres unmarked) [Compound 216, 5-Amino-1-(2,6-dichloro-4-trifluoromethylphenyl)-4-methylsulphinyl-3-trifluoromethylpyrazole]
mortality at 5 ppm [1]: 100%
mortality at 500 ppm [3]: 100%

CC[S+]([O-])c1c(C(F)(F)F)nn(-c2c(Cl)cc(C(F)(F)F)cc2Cl)c1N (centres unmarked) [Compound 217, 5-Amino-1-(2,6-dichloro-4-trifluoromethylphenyl)-4-ethylsulphinyl-3-trifluoromethylpyrazole]
mortality at 5 ppm [1]: 100%
mortality at 50 ppm [2]: 100%
score from 4 replicates, Megoura viciae [2]: 12

Cc1nn(-c2c(Cl)cc(C(F)(F)F)cc2Cl)c(N)c1S(=O)(=O)C(Cl)(Cl)Cl [Compound 224, 5-Amino-1-(2,6-dichloro-4-trifluoromethylphenyl)-4-trichloromethanesulphonyl-3-methylpyrazole]
mortality at 5 ppm [1]: 100%
mortality at 50 ppm [2]: 100%
score from 4 replicates, Megoura viciae [2]: 12

CCSc1c(C)nn(-c2c(Cl)cc(C(F)(F)F)cc2Cl)c1N [Compound 225, 5-Amino-1-(2,6-dichloro-4-trifluoromethylphenyl)-4-ethylthio-3-methylpyrazole]
mortality at 50 ppm [2]: 100%
score from 4 replicates, Megoura viciae [2]: 12

CSc1c(C)nn(-c2c(Cl)cc(C(F)(F)F)cc2Cl)c1N [Compound 226, 5-Amino-1-(2,6-dichloro-4-trifluoromethylphenyl)-3-methyl-4-methylthiopyrazole]
mortality at 5 ppm [1]: 100%
mortality at 50 ppm [2]: 100%
score from 4 replicates, Megoura viciae [2]: 12

CSc1c(C(F)(F)F)nn(-c2c(Cl)cc(C(F)(F)F)cc2Cl)c1N [Compound 229, 5-Amino-1-(2,6-dichloro-4-trifluoromethylphenyl)-4-methylthio-3-trifluoromethylpyrazole]
mortality at 5 ppm [1]: 100%
mortality at 500 ppm [3]: 100%
